Experimental data reported in patent publication US7786141B2 (Vertex Pharmaceuticals Incorporated, priority 2004, dated 2010).

Columns and labels:
M1 muscarinic receptor = biological target: T1, M1 muscarinic receptor (Homo sapiens, UniProt P11229); test: Functional mobilization of intracellular calcium (FLIPR) in M1-CHO cells; type: cell-based; conditions: Table 4; for Emax: 100% efficacy is the maximum response obtained with the Carbachol control; for M1 Activity: modulating M1 receptor
T1 construct: expressed in transfected cells; host or cells: CHO (M1-CHO)
T1 sequence (P11229 1-460): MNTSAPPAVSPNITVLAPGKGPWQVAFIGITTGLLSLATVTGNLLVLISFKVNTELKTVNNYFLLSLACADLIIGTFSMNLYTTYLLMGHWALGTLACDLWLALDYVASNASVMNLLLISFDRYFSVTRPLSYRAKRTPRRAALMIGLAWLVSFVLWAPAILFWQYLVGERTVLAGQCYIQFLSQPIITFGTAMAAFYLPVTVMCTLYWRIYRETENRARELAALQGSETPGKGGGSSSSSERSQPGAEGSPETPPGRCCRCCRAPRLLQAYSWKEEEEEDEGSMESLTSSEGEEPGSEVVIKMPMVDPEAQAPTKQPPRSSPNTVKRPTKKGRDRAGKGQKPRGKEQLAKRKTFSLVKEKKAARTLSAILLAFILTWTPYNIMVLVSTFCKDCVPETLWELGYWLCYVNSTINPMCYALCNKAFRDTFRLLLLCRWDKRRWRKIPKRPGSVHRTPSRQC
Procedure, shortened: (§1)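 Intracellular calcium rise is measured by FLIPR fluorescence over 60 sec in CHO cells carrying human M1 or M4 receptors. Compounds are tested alone as agonists, or pre-incubated 15 min (or co-applied) ahead of carbachol at its EC80 to detect inhibition.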

M4 muscarinic receptor = biological target: T2, M4 muscarinic receptor (Homo sapiens, UniProt P08173); test: Functional mobilization of intracellular calcium (FLIPR) in M4-CHO cells; type: cell-based; conditions: Table 4; for Emax: 100% efficacy is the maximum response obtained with the Carbachol control; for M4 Activity: modulating M4 receptor
T2 construct: expressed in transfected cells; host or cells: CHO (M4-CHO)
T2 sequence (P08173 1-479): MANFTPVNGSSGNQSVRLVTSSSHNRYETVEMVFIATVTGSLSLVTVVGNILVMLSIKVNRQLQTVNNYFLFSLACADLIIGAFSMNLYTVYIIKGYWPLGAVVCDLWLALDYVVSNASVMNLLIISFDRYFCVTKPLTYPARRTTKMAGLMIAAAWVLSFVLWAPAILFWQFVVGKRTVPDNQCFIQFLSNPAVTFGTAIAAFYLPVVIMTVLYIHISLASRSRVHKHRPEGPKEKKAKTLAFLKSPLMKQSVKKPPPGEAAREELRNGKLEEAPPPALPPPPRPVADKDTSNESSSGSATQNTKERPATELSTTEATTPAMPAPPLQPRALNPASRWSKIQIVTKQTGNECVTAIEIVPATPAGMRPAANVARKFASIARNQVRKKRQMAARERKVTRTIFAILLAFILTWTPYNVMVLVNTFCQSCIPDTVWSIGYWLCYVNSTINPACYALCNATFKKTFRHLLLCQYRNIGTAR
Procedure, shortened: as §1

Row | SMILES | Emax (M1 muscarinic receptor) [%] | M1 Activity (M1 muscarinic receptor) | Emax (M4 muscarinic receptor) [%] | M4 Activity (M4 muscarinic receptor)
1 | CCCC#CCOC(=O)N1CCC(N2CCC3(CC2)CN(C(C)=O)c2ccccc23)CC1 [compound 620] | 25 to 100 | x (activity was measured to be greater than 5.0 μM) | < 25 | x (activity was measured to be greater than 5.0 μM)
2 | O=C1CCCCC1N1CC2(CCN(C3CC4CCC(C4)C3)CC2)c2cc(F)ccc21 (stereo not shown) [compound 621] | 25 to 100 | xx (activity was measured to be between 2.0 μM and 5.0 μM) | 25 to 100 | xxx (activity was measured to be less than 2.0 μM)
3 | Cc1ccc2c(c1)C1(CCN(CC3CC4CCC(C4)C3)CC1)CN2 (stereo not shown) [compound 622] | < 25 | x (activity was measured to be greater than 5.0 μM) | < 25 | x (activity was measured to be greater than 5.0 μM)
4 | CC(=O)N1CC2(CCN(C3CC4CCC(C3)N4C(=O)O[C@H]3CCOC3)CC2)c2ccccc21 (stereo partly shown) [compound 623] | 25 to 100 | xxx (activity was measured to be less than 2.0 μM) | 25 to 100 | xxx (activity was measured to be less than 2.0 μM)
5 | CCC(C)(C)C1CCC(N2CCC3(CC[C@H](NC(C)=O)c4ccccc43)CC2)CC1 (stereo partly shown) [compound 624] | 25 to 100 | xxx (activity was measured to be less than 2.0 μM) | < 25 | x (activity was measured to be greater than 5.0 μM)
6 | CN(C)C(=O)N1CC2(CCN(C[C@@H]3CCN(C(=O)OCC(F)F)C3)CC2)c2cc(F)ccc21 [compound 625] | 25 to 100 | xxx (activity was measured to be less than 2.0 μM) | > 100 | xxx (activity was measured to be less than 2.0 μM)
7 | CCOC(=O)N1CCC(N2CCC3(CC2)CN(C(C)=O)c2ccccc23)CC1 [compound 626] | 25 to 100 | xxx (activity was measured to be less than 2.0 μM) | 25 to 100 | xxx (activity was measured to be less than 2.0 μM)
8 | CS(=O)(=O)N[C@H]1CCC2(CCN(CC3CC4C=CC3C4)CC2)c2ccccc21 (stereo partly shown) [compound 627] | 25 to 100 | xxx (activity was measured to be less than 2.0 μM) | 25 to 100 | xxx (activity was measured to be less than 2.0 μM)
9 | COC(=O)N1CCCC(N2CCC3(CC2)CN(C(=O)N(C)C)c2ccc(F)cc23)CC1 (stereo not shown) [compound 628] | 25 to 100 | xxx (activity was measured to be less than 2.0 μM) | 25 to 100 | xxx (activity was measured to be less than 2.0 μM)
10 | CCOC(=O)N1CCC(N2CCC3(CC2)CN(C(C)=O)c2c(-c4ccc(C(N)=O)cc4)cccc23)CC1 [compound 629] | 25 to 100 | xx (activity was measured to be between 2.0 μM and 5.0 μM) | 25 to 100 | xx (activity was measured to be between 2.0 μM and 5.0 μM)
11 | CCCOC(=O)N1CCC(N2CCC3(CC2)CN(C(C)=O)c2ccc(F)cc23)C1 (stereo not shown) [compound 632] | < 25 | x (activity was measured to be greater than 5.0 μM) | < 25 | x (activity was measured to be greater than 5.0 μM)
12 | CN(C)C(=O)N1CC2(CCN(C3CCN(C(=O)CCC(F)(F)F)CC3)CC2)c2cc(F)ccc21 [compound 633] | 25 to 100 | xx (activity was measured to be between 2.0 μM and 5.0 μM) | < 25 | x (activity was measured to be greater than 5.0 μM)
13 | CC(=O)N1CC2(CCN(C3CCN(C(=O)OC(C)C)C3)CC2)c2cc(F)ccc21 (stereo not shown) [compound 634] | < 25 | x (activity was measured to be greater than 5.0 μM) | < 25 | x (activity was measured to be greater than 5.0 μM)
14 | CC(=O)N[C@H]1CCC2(CCN(CC3CCC3)CC2)c2ccccc21 [compound 636] | 25 to 100 | xxx (activity was measured to be less than 2.0 μM) | 25 to 100 | xxx (activity was measured to be less than 2.0 μM)
15 | CC#CCOC(=O)N1CC[C@H](CN2CCC3(CC2)CN(C(C)=O)c2ccccc23)C1 [compound 637] | > 100 | xxx (activity was measured to be less than 2.0 μM) | 25 to 100 | xxx (activity was measured to be less than 2.0 μM)
16 | CC(=O)N[C@H]1CC2(CCN(C3CCC(C(C)(C)C)CC3)CC2)c2ccccc21 (stereo partly shown) [compound 638] | < 25 | x (activity was measured to be greater than 5.0 μM) | < 25 | x (activity was measured to be greater than 5.0 μM)
17 | O=C(N[C@H]1CC2(CCN(CC3CCCCC3)CC2)c2ccccc21)c1ccoc1 [compound 639] | 25 to 100 | x (activity was measured to be greater than 5.0 μM) | < 25 | x (activity was measured to be greater than 5.0 μM)
18 | CC(=O)N[C@H]1CC2(CCN(CC3CC4CCC3C4)C2)c2ccc(F)cc21 (stereo partly shown) [compound 640] | 25 to 100 | xxx (activity was measured to be less than 2.0 μM) | 25 to 100 | xxx (activity was measured to be less than 2.0 μM)
19 | CC(=O)N[C@H]1CC2(CCN(C3CC(C)(C)CC(C)(C)C3)CC2)c2ccccc21 [compound 641] | < 25 | x (activity was measured to be greater than 5.0 μM) | < 25 | x (activity was measured to be greater than 5.0 μM)
20 | c1ccc2c(c1)CCCC21CCN(C2C[C@@H]3CC[C@H]2C3)CC1 (stereo partly shown) [compound 642] | 25 to 100 | x (activity was measured to be greater than 5.0 μM) | > 100 | xxx (activity was measured to be less than 2.0 μM)
21 | COc1cc2c(cc1OC)C1(CCN(C3CCCCC3)CC1)C[C@@H]2N(C(C)=O)[C@@H](C)c1ccccc1 [compound 643] | < 25 | x (activity was measured to be greater than 5.0 μM) | < 25 | x (activity was measured to be greater than 5.0 μM)
22 | CC(=O)N1CC2(CCN(CC3CCOCC3)CC2)c2cc(F)ccc21 [compound 644] | < 25 | x (activity was measured to be greater than 5.0 μM) | < 25 | x (activity was measured to be greater than 5.0 μM)
23 | CCC#CCOC(=O)N1CC[C@@H](CN2CCC3(CC2)CN(C(=O)N(C)C)c2ccc(F)cc23)C1 [compound 645] | 25 to 100 | xxx (activity was measured to be less than 2.0 μM) | 25 to 100 | xxx (activity was measured to be less than 2.0 μM)
24 | CC(=O)N[C@H]1CCC2(CCN(C3CCC(C(C)(C)C)CC3)CC2)c2ccccc21 (stereo partly shown) [compound 646] | 25 to 100 | xxx (activity was measured to be less than 2.0 μM) | < 25 | x (activity was measured to be greater than 5.0 μM)
25 | O=C1CCCN1[C@H]1CCC2(CCN(CC3CCCCC3)CC2)c2ccccc21 [compound 647] | 25 to 100 | xxx (activity was measured to be less than 2.0 μM) | 25 to 100 | xxx (activity was measured to be less than 2.0 μM)
26 | CCOC(=O)N1CCC(N2CCC3(CC2)CN(C(C)=O)c2ccc(-c4cccc(OC)c4)cc23)CC1 [compound 648] | 25 to 100 | xx (activity was measured to be between 2.0 μM and 5.0 μM) | < 25 | x (activity was measured to be greater than 5.0 μM)
27 | CN(C)C(=O)N1CC2(CCN(C3CCN(C(=O)c4cccs4)CC3)CC2)c2cc(F)ccc21 [compound 649] | 25 to 100 | xxx (activity was measured to be less than 2.0 μM) | < 25 | xxx (activity was measured to be less than 2.0 μM)
28 | O=C(N[C@H]1CC2(CCN([C@@H]3CC4CC[C@@H]3C4)CC2)c2ccccc21)C1CC1 [compound 650] | 25 to 100 | xxx (activity was measured to be less than 2.0 μM) | 25 to 100 | xxx (activity was measured to be less than 2.0 μM)
